Data: PubChem BioAssay (NCI)
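Assay format: 96-well plates, 48-hour exposure. GI50 is the concentration that inhibits growth by half. TGI: concentration producing complete growth inhibition.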

What was measured:
Assay in all cases: inhibition of tumour cell growth, NCI panel, 48 h; in the data active = GI50 below about 0.43 µM; inactive = the rest
A549 NSCLC = system: A549 NSCLC
MDA-MB-435 = system: MDA-MB-435
SW-620 colon = system: SW-620 colon
OVCAR-5 ovarian = system: OVCAR-5 ovarian
NCI-H23 lung = system: NCI-H23 lung
MCF7 breast = system: MCF7 breast
HCC-2998 colon = system: HCC-2998 colon
SK-MEL-28 melanoma = system: SK-MEL-28 melanoma
SF-268 CNS = system: SF-268 CNS
HOP-92 NSCLC = system: HOP-92 NSCLC
M14 melanoma = system: M14 melanoma
KM12 colon = system: KM12 colon
T-47D breast = system: T-47D breast
SNB-19 CNS = system: SNB-19 CNS
MALME-3M melanoma = system: MALME-3M melanoma
MOLT-4 leukemia = system: MOLT-4 leukemia
SF-295 CNS = system: SF-295 CNS
UO-31 renal = system: UO-31 renal
ACHN renal = system: ACHN renal
K-562 leukemia = system: K-562 leukemia
SK-MEL-5 melanoma = system: SK-MEL-5 melanoma
PC-3 prostate = system: PC-3 prostate
786-0 renal = system: 786-0 renal
OVCAR-3 ovarian = system: OVCAR-3 ovarian
COLO 205 colon = system: COLO 205 colon
SK-MEL-2 melanoma = system: SK-MEL-2 melanoma
CCRF-CEM leukemia = system: CCRF-CEM leukemia
BT-549 breast = system: BT-549 breast
NCI-H522 lung = system: NCI-H522 lung
OVCAR-8 ovarian = system: OVCAR-8 ovarian
SK-OV-3 ovarian = system: SK-OV-3 ovarian
NCI-H460 lung = system: NCI-H460 lung
TK-10 renal = system: TK-10 renal
HCT-116 colon = system: HCT-116 colon
IGROV1 ovarian = system: IGROV1 ovarian
NCI/ADR-RES ovarian = system: NCI/ADR-RES ovarian
SF-539 CNS = system: SF-539 CNS
RXF 393 renal = system: RXF 393 renal
HOP-62 NSCLC = system: HOP-62 NSCLC
SN12C renal = system: SN12C renal
UACC-62 melanoma = system: UACC-62 melanoma
HCT-15 colon = system: HCT-15 colon
A498 renal = system: A498 renal
NCI-H226 lung = system: NCI-H226 lung
CAKI-1 renal = system: CAKI-1 renal
LOX IMVI melanoma = system: LOX IMVI melanoma
MDA-MB-231 breast = system: MDA-MB-231 breast
HT29 colon = system: HT29 colon
SR leukemia = system: SR leukemia
DU-145 prostate = system: DU-145 prostate
UACC-257 melanoma = system: UACC-257 melanoma
HL-60(TB) leukemia = system: HL-60(TB) leukemia
U251 CNS = system: U251 CNS
HS 578T breast = system: HS 578T breast
RPMI-8226 leukemia = system: RPMI-8226 leukemia
OVCAR-4 ovarian = system: OVCAR-4 ovarian
SNB-75 CNS = system: SNB-75 CNS
EKVX NSCLC = system: EKVX NSCLC

O=C(NCCN1CCOCC1)Nc1nc2ccc(Sc3nnc4ccc(-c5ccc(F)cc5)nn34)cc2s1
> 59.6 µM: TGI (T-47D breast)
> 21.6 µM: TGI (MDA-MB-231 breast)
> 38.8 µM: TGI (M14 melanoma)
5.39 µM: TGI (786-0 renal)
> 91.2 µM: TGI (SK-MEL-2 melanoma)
> 100 µM: TGI (A549 NSCLC) | TGI (MDA-MB-435) | TGI (SW-620 colon) | TGI (OVCAR-5 ovarian) | TGI (NCI-H23 lung) | TGI (MCF7 breast) | TGI (HCC-2998 colon) | TGI (SF-268 CNS) | TGI (HOP-92 NSCLC) | TGI (KM12 colon) | TGI (SNB-19 CNS) | TGI (MOLT-4 leukemia) | TGI (UO-31 renal) | TGI (ACHN renal) | TGI (K-562 leukemia) | TGI (PC-3 prostate) | TGI (OVCAR-3 ovarian) | TGI (CCRF-CEM leukemia) | TGI (NCI-H522 lung) | TGI (OVCAR-8 ovarian) | TGI (SK-OV-3 ovarian) | TGI (NCI-H460 lung) | TGI (TK-10 renal) | TGI (HCT-116 colon) | TGI (IGROV1 ovarian) | TGI (NCI/ADR-RES ovarian) | TGI (SF-539 CNS) | TGI (HOP-62 NSCLC) | TGI (SN12C renal) | TGI (HCT-15 colon) | TGI (A498 renal) | TGI (NCI-H226 lung) | TGI (CAKI-1 renal) | TGI (SR leukemia) | TGI (DU-145 prostate)
21.4 µM: TGI (UACC-62 melanoma)
> 24.2 µM: TGI (HT29 colon)
> 42.3 µM: TGI (LOX IMVI melanoma)
> 21.1 µM: TGI (MALME-3M melanoma)
> 33.3 µM: TGI (COLO 205 colon)
inactive: GI50 (A549 NSCLC) > 100 µM | GI50 (OVCAR-5 ovarian) > 39 µM | GI50 (NCI-H23 lung) > 100 µM | GI50 (HCC-2998 colon) 17.3 µM | GI50 (SK-MEL-28 melanoma) 2.59 µM | GI50 (SF-268 CNS) > 23.3 µM | GI50 (HOP-92 NSCLC) 3.32 µM | GI50 (KM12 colon) 0.571 µM | GI50 (T-47D breast) > 21.2 µM | GI50 (SNB-19 CNS) 2.8 µM | GI50 (MALME-3M melanoma) 3.12 µM | GI50 (MOLT-4 leukemia) > 100 µM | GI50 (UO-31 renal) > 100 µM | GI50 (ACHN renal) > 90.8 µM | GI50 (K-562 leukemia) 2.31 µM | GI50 (PC-3 prostate) > 100 µM | GI50 (786-0 renal) 1.59 µM | GI50 (OVCAR-3 ovarian) > 100 µM | GI50 (COLO 205 colon) 4.53 µM | GI50 (SK-MEL-2 melanoma) > 44.3 µM | GI50 (BT-549 breast) 2.62 µM | GI50 (NCI-H522 lung) 26.4 µM | GI50 (OVCAR-8 ovarian) > 100 µM | GI50 (SK-OV-3 ovarian) > 100 µM | GI50 (TK-10 renal) > 100 µM | GI50 (HCT-116 colon) 6.88 µM | GI50 (IGROV1 ovarian) > 100 µM | GI50 (NCI/ADR-RES ovarian) > 100 µM | GI50 (SF-539 CNS) 2.94 µM | GI50 (RXF 393 renal) 0.522 µM | GI50 (HOP-62 NSCLC) > 20.8 µM | GI50 (UACC-62 melanoma) 6.16 µM | GI50 (HCT-15 colon) > 26.7 µM | GI50 (A498 renal) 80.6 µM | GI50 (NCI-H226 lung) 3.67 µM | GI50 (MDA-MB-231 breast) 3 µM | GI50 (HT29 colon) 2.79 µM | GI50 (SR leukemia) 5.04 µM | GI50 (DU-145 prostate) > 100 µM | GI50 (UACC-257 melanoma) 7.94 µM
> 28.6 µM: TGI (SK-MEL-5 melanoma)
> 27.8 µM: TGI (BT-549 breast)
1.95 µM: TGI (SF-295 CNS)
> 21.2 µM: TGI (UACC-257 melanoma)
active: GI50 (SF-295 CNS) 0.101 µM

CCCCCCCCCCCCCCCCCc1cc(Cl)nc(Cl)n1
> 100 µM: TGI (A549 NSCLC) | TGI (MDA-MB-435) | TGI (SW-620 colon) | TGI (HL-60(TB) leukemia) | TGI (OVCAR-5 ovarian) | TGI (NCI-H23 lung) | TGI (U251 CNS) | TGI (MCF7 breast) | TGI (HCC-2998 colon) | TGI (HS 578T breast) | TGI (SK-MEL-28 melanoma) | TGI (SF-268 CNS) | TGI (M14 melanoma) | TGI (KM12 colon) | TGI (SNB-19 CNS) | TGI (MALME-3M melanoma) | TGI (MOLT-4 leukemia) | TGI (SF-295 CNS) | TGI (UO-31 renal) | TGI (ACHN renal) | TGI (K-562 leukemia) | TGI (SK-MEL-5 melanoma) | TGI (PC-3 prostate) | TGI (786-0 renal) | TGI (OVCAR-3 ovarian) | TGI (SK-MEL-2 melanoma) | TGI (CCRF-CEM leukemia) | TGI (BT-549 breast) | TGI (OVCAR-8 ovarian) | TGI (SK-OV-3 ovarian) | TGI (RPMI-8226 leukemia) | TGI (NCI-H460 lung) | TGI (TK-10 renal) | TGI (IGROV1 ovarian) | TGI (NCI/ADR-RES ovarian) | TGI (OVCAR-4 ovarian) | TGI (SF-539 CNS) | TGI (SNB-75 CNS) | TGI (RXF 393 renal) | TGI (HOP-62 NSCLC) | TGI (SN12C renal) | TGI (UACC-62 melanoma) | TGI (HCT-15 colon) | TGI (NCI-H226 lung) | TGI (EKVX NSCLC) | TGI (LOX IMVI melanoma) | TGI (HT29 colon) | TGI (SR leukemia) | TGI (UACC-257 melanoma)

CSC1=C(C(=O)N(COCC[Si](C)(C)C)c2ccccc2Br)CCC(C(C)(C)C)C1 (centres undefined)
45.8 µM: TGI (HOP-92 NSCLC)
42.2 µM: TGI (KM12 colon)
34.4 µM: TGI (NCI-H226 lung)
46.4 µM: TGI (MALME-3M melanoma)
24 µM: TGI (U251 CNS)
> 100 µM: TGI (A549 NSCLC) | TGI (MDA-MB-435) | TGI (NCI-H23 lung) | TGI (SK-MEL-28 melanoma) | TGI (PC-3 prostate) | TGI (CCRF-CEM leukemia) | TGI (BT-549 breast) | TGI (OVCAR-8 ovarian) | TGI (SK-OV-3 ovarian) | TGI (RPMI-8226 leukemia) | TGI (TK-10 renal) | TGI (IGROV1 ovarian) | TGI (NCI/ADR-RES ovarian) | TGI (OVCAR-4 ovarian) | TGI (SNB-75 CNS) | TGI (DU-145 prostate)
47.8 µM: TGI (UACC-257 melanoma)
29.1 µM: TGI (K-562 leukemia)
39.9 µM: TGI (UACC-62 melanoma)
76.3 µM: TGI (M14 melanoma)
85.9 µM: TGI (A498 renal)
24.6 µM: TGI (NCI-H522 lung)
24.4 µM: TGI (OVCAR-3 ovarian)
31.7 µM: TGI (SK-MEL-2 melanoma)
26.1 µM: TGI (HCT-15 colon)
18.1 µM: TGI (CAKI-1 renal)
64.4 µM: TGI (HT29 colon)
18.3 µM: TGI (HCT-116 colon)
53.2 µM: TGI (HOP-62 NSCLC)
51.2 µM: TGI (ACHN renal)
27.2 µM: TGI (SK-MEL-5 melanoma)
41 µM: TGI (SW-620 colon)
21.9 µM: TGI (MOLT-4 leukemia)
37.8 µM: TGI (EKVX NSCLC)
23.1 µM: TGI (RXF 393 renal)
28.7 µM: TGI (OVCAR-5 ovarian)
30.5 µM: TGI (MDA-MB-231 breast)
34.3 µM: TGI (T-47D breast)
25.6 µM: TGI (SF-295 CNS)
26.2 µM: TGI (786-0 renal)
27.8 µM: TGI (SN12C renal)
42.9 µM: TGI (SNB-19 CNS)
44.1 µM: TGI (NCI-H460 lung)
29.2 µM: TGI (LOX IMVI melanoma)
25.7 µM: TGI (COLO 205 colon)
11.8 µM: TGI (HL-60(TB) leukemia)
28 µM: TGI (MCF7 breast)
27 µM: TGI (HCC-2998 colon) | TGI (UO-31 renal)
11.7 µM: TGI (SR leukemia)
